“Also recorded” adds a separate entry of the source. Structures can show the parent of a compound that is named as a salt. Where two headings read alike, the source gives them in different places.

For one data set, the system named is infant gut microbiota. As to the kind of experiment: TIM-2 in vitro proximal colon model inoculated with infant feces. The arrangement: species or system human. The note with it: high dose LNnT (1000 mg/L) with infant formula.
Data set [1] concerns mammary epithelial cells (MECs). As to the kind of experiment: Cell permeability: FITC and FITC-dextran flux from basolateral to apical compartment. In kind it is cell-based, mouse. The procedure:
Cell Permeability: To assess whether mammary epithelial permeability was altered by the treatments, we measured the unidirectional flux of fluorescein isothiocyanate (FITC, molecular weight 376) and FITC-labeled dextran 3000 (FITC-dex) from the basolateral to the apical compartments. MECs were prepared as stated above and treated with palmitate and orlistat as described above. After 2 days, FITC and FITC-dex (0.5 mg/mL) were added to the basolateral chamber, and the cells were incubated for 1 h. Thereafter, the basolateral and apical media were aspirated separately, and fluorescence intensity was measured at 490/520 nm excitation/emission maxima. The permeability of the cells is expressed as percent of flux into the apical chamber/total FITC administered into the basolateral chamber.

Data set [2] shares this test system. As to the kind of experiment: 3-D mouse mammary epithelial cell (MEC) primary culture: milk and lipid synthesis and secretion. In kind it is cell-based. The note with it: for MEC "milk" β-casein protein expression: palmitate 50, 100 μmol/L; for MEC "milk" β-casein protein expression / MEC "milk" triglyceride secretion / concentration / palmitate-induced MEC "milk" triglyceride concentration: 48 h; for MEC "milk" β-casein protein expression / MEC "milk" triglyceride secretion / concentration: (sodium salt); for MEC "milk" triglyceride secretion / concentration: palmitate 50, 100 μmol/L in basolateral chamber, vs untreated MECs; for palmitate-induced MEC "milk" triglyceride concentration: orlistat 100 μmol/L together with palmitate 100 μmol/L. The procedure: The growth medium consisted of RPMI-1640 supplemented with 10% FBS, 10 μg/mL of insulin, 10 ng/ml of EGF, 100 U/mL of penicillin, and 100 μg/mL of streptomycin. The lactogenic medium consisted of growth medium plus 0.5 U/mL of prolactin and 1 μM dexamethasone. The palmitate-albumin conjugate stock solution contained a palmitate solution (2 mM/L in 50% ethanol) and FA-free BSA (2%) and was diluted in lactation medium to provide 50 and 100 μmol/L palmitate concentrations. Orlistat was dissolved in ethanol.
3-D Cell Culture Model: This example recreated the milk production pathway in mammary epithelial cell (MEC) primary cultures. The method uses cell culture inserts to maintain the cell polarity of MECs, which secrete milk components into the apical (upper) compartment from nutrient sources in the basolateral (lower) compartment (FIG. 1). Briefly, the mice (N=6) were euthanized, and the 4th abdominal mammary glands from both sides were collected in PBS buffer for the isolation of MECs. The mammary glands were minced and incubated in RPMI-1640 medium containing collagenase III (1.5 mg/mL) for 2 h at 37° C. with gentle shaking, followed by centrifugation (600×g for 1 min). The pellet was re-suspended in RPMI-1640 with 0.2% trypsin for 5 min at room temperature. The fragments of the mammary epithelium were dissociated by gentle pipetting with a Pasteur pipette and centrifuged (600×g for 1 min), and the pellet was re-suspended in 60% FBS (fetal bovine serum) followed by centrifugation (10×g for 1 min). The trypsin treatment and centrifugation with FBS were repeated for the isolation of mammary epithelial fragments without contaminating cells, such as fibroblasts, adipocytes, and myoepithelial cells. The epithelial fragments (0.1 mg) were subsequently seeded in 24-well cell culture plates with inserts to separate the basolateral chamber containing the lactogenic medium (nutrients) and the apical chamber containing the secreted MEC “milk”. The cells were cultured for 6 days at 37° C. in growth medium placed in the basolateral chamber. To induce lactogenesis, MECs were cultured in lactogenic medium placed in the basolateral and apical chambers for 2 days at 37° C. To induce a high milk production ability, MECs were cultured at 39° C. with the lactogenic medium in the basolateral chamber and with RMPI-1640 in the apical chamber (FIG. 1).
Treatments: Palmitate (50, 100 μmol/L) or the lipase inhibitor orlistat (100 μmol/L) together with palmitate (100 μmol/L) were added to the lactogenic medium within the basolateral chamber, and RPMI-1640 was maintained in the apical chamber. After 48 h, MECs and apical medium were collected separately for analysis, as described below.
Sample Analysis: Henceforth, we refer to cellular MECs as “MECs” and to apical medium as MEC “milk”. MECs were fixed for immunostaining or stored at −80° C. for protein and mRNA expression studies. MEC “milk” was frozen at −80° C. and analyzed for triglyceride concentration and protein and mRNA expression.
Western Blot: The cells were harvested and dissolved in RIPA solution with a protease inhibitor cocktail and sonicated, and the cell lysates were processed for the analysis of protein concentration by the […] Protein Assay Kit. For the detection of pSTAT5, the protein phosphatase inhibitor NaF (50 mM) was added to all buffers. MEC protein expression of β-casein (25 kDa), FAS (270 KDa), SREBP1 (68 KDa), and pSTAT5 (92 KDa) was analyzed.
MEC “milk” was similarly analyzed for protein expression of β-casein.
RT-PCR: The mRNA abundance of the target genes (lipoprotein lipase, LPL; FAS) and the reference gene (18S) in MEC and MEC “milk” was determined by RT-PCR. Briefly, RNA was extracted following the manufacturer's instructions, using the RNeasy Mini Kit (Qiagen, Valencia, CA, USA). Briefly, a guanidine-thiocyanate-containing lysis buffer and ethanol were added to the samples to promote the selective binding of RNA to the RNeasy membrane. […]

For data set [3] the following is noted: humans; cited from earlier work.
The test system of the next data set is in vitro cultures. As to the kind of experiment: Cell viability of in vitro cultures with orlistat. Format: cell-based. The note with it: orlistat 250 μM, orlistat-to-palmitate ratio 1:1.

Procedure for infant gut microbiota: Preliminary Data on Effect of HMOs on infant microbiome: These in vitro studies were performed with TIM-2 107-121 inoculated with feces from 3-month old breast-fed infants (pooled microbiota of 5 infants).
Effect of HMO lacto-N-neotetraose (LNnT) on microbiome metabolic activity: We studied the effect of the most abundant HMOs LNnT (200 and 1000 mg/L) on the metabolic activity of the gut microbiota in TIM-2 when exposed to infant formula.
TIM-2 in vitro Colon Model: TIM-2 simulates the colon and consists of four interconnected compartments containing flexible membranes in which peristaltic movements are mimicked. Conditions of healthy human infants are simulated including: body temperature, lumen pH, composition and rate of secretion fluids, delivery of a predigested substrate from the ‘ileum’, mixing and transport of intestinal contents by peristalsis, absorption of water and microbial metabolites through a dialysis system, and presence of a complex, high density, metabolically active and anaerobic microbiota of healthy human infants. The dialysis system prevents accumulation of microbial metabolites, which would otherwise inhibit or kill gut microbiota. The model will be inoculated with a pooled microbiota of healthy human infants (˜2 months) using feces collected (diaper samples) from 10 volunteers and pooled in an anaerobic cabinet to allow for a standardized microbiota. […]

Consider `CC(=O)N[C@H]1[C@H](O[C@H]2[C@@H](O)[C@@H](CO)O[C@@H](O[C@H]3[C@H](O)[C@@H](O)C(O)O[C@@H]3CO)[C@@H]2O)O[C@H](CO)[C@@H](O[C@@H]2O[C@H](CO)[C@H](O)[C@H](O)[C@H]2O)[C@@H]1O` (mixture of isomers) [LNnT, lacto-N-neotetraose], for which the “L-lactate production by gut microbiota” value with infant gut microbiota is reported as “increased”.
For the compound `CCCCCCCCCCCCCCCC(=O)O` [palmitate, palmitate (sodium salt)], the “FITC fluorescence measured in the apical chamber, treated vs non-treated” value in data set [1] is “comparable”. Moreover, the “MEC "milk" β-casein protein expression” value in data set [2] (apical medium) was “dose-dependent increase”. In data set [2] (apical medium, listed as palmitic), the “MEC "milk" β-casein protein expression” value was “increases”. Besides, in data set [2] (apical medium, palmitate 48 h), the “MEC "milk" mRNA expression of Fas” value is recorded as “increased” and the “MEC "milk" mRNA expression of Lpl” value is reported as “increased”. Moreover, in data set [2] (cellular MECs, palmitate 48 h), the “MEC mRNA expression of Fas” value is listed as “increased”, the “MEC mRNA expression of Lpl” value is recorded as “increased”, the “MEC protein expression of FAS” value is “increased” and the “MEC protein expression of SREBP1” value is listed as “increased”. Besides, in data set [2] (cellular MECs, palmitate 48 h), the “MEC protein expression of pSTAT5” value is listed as “increased” and the “MEC protein expression of β-casein” value was “increased”. In addition, the “MEC "milk" triglyceride secretion / concentration” value in data set [2] was “dose-dependent increase”. Besides, the “MEC "milk" triglyceride secretion / concentration” value in data set [2] (listed as Na-palmitate) was “doubled”. In addition, in data set [2] (listed as palmitic), the “MEC "milk" triglyceride secretion / concentration” value was “increases”.
On to `CCCCCCCCCCC[C@@H](C[C@@H]1OC(=O)[C@H]1CCCCCC)OC(=O)[C@H](CC(C)C)NC=O` [orlistat], for which the systemic absorption entry in data set [3] is “minimal”. For the same compound, in data set [1] (after 48 h treatment, 1 h incubation with FITC), the “FITC fluorescence measured in the apical chamber, treated vs non-treated” value was “comparable”. Besides, the “palmitate-induced MEC "milk" triglyceride concentration” value in data set [2] is “reversed; also recorded: suppressed”; in data set [2] (listed as Orlistat) it was “normalized”. Besides, in the data set with in vitro cultures, the cell viability entry is given as “demonstrated cell viability”.

These data come from patent US20250235415A1, “MODULATION OF HUMAN BREAST MILK COMPOSITION” (LUNDQUIST INSTITUTE FOR BIOMEDICAL INNOVATION AT …, priority 2022, published 2025).
